# Reference: patent publication US20130040937A1, “INHIBITORS FOR TREATING AND PREVENTING HEART FAILURE IN FELINES” (BOEHRINGER INGELHEIM VETMEDICA GMBH, priority 2011, published 2013)
# Where two headings read alike, the source gives them in different places.
# Assays:
# [1] = Pharmacokinetics in healthy cats, once daily po. for 4 days; assay type: in vivo; conditions: cat
# Procedure: (§1) Cilobradine chloride salt was administered at a dose of 5, 10 and 20 mg per subject in the form of capsules. These doses are equal to 0.07, 0.14, and 0.28 mg/kg cilobradine chloride salt assuming a body weight of 70 kg. […] Cilobradine hydrochloride was administered at a dose of 0.1 mg/kg and 0.3 mg/kg as a suspension. […] There are some differences between cats and humans in terms of pharmacokinetics of cilobradine, which might be related to differences in absorption, metabolisation, distribution, or excretion.
# [2] = Pharmacokinetics in healthy human male subjects, once daily po. for 7 days; assay type: in vivo
# Procedure: as §1
# heart rate [3] = experiment: Pharmacodynamic profile (telemetric heart rate) in the conscious cat; assay type: in vivo
# Procedure: as §1
# The pharmacodynamic profile of cilobradine hydrochloride was characterised at two dose levels administered by the oral route, once and twice daily, in the conscious cat. The study involved 2 groups of 3 male European Short Hair cats weighing between 4.15 kg and 4.75 kg on the day of the first treatment. Each cat was dosed with cilobradine hydrochloride once (sid) and twice (bid) daily successively at 0.1 or 0.3 mg/kg in a cross over-design. Each treatment was separated by an interval of 24 hours (sid) or 12 hours (bid). A washout period of 7 days was scheduled between the 2 dosing periods. Cats were previously instrumented with telemetric transmitters for heart rate measurements. Telemetric measurements were recorded for 15 seconds every 5 minutes at a sampling rate of 500 Hz on D-2, D-1, from D0 up to D9 and from D16 up to D25 except for D4 and D20 during blood sampling.
# Lipophilicity profile = assay type: physicochemical; conditions: neutral pH versus acidic pH
# Source text: Usually, EC/HPMC films show a sustained release behaviour that is independent of pH. […] This profile, together with the coating applied, may have led to a slower release.
# Ih channel = conditions: literature (Neuroscience 1994; Br J Pharmacol 1998); cited from earlier work
# healthy cats = experiment: Effects on vasomotor tone, myocardial contractility and lusitropy in healthy cats; assay type: in vivo, cat; conditions: therapeutically relevant doses
# Source text: “Funny If current inhibitors”, also referred to as “If channel blockers” or “If current inhibitors” herein, relate to If inhibitors including pharmaceutically acceptable salts thereof, which selectively block hyperpolarization-activated cyclic nucleotide-gated channels (HCN) in cardiac conductive tissue, channels responsible for the transmembrane current known as If. It is through blockade of this current that If channel blockers are assumed to produce their specific bradycardic effect. HCN channels are widely distributed in the nervous system and in the eye they mediate the current known as Ih. The effect of zatebradine and cilobradine on the Ih channel has also been investigated (See Neuroscience, Vol. 59(2), pp. 363-373, 1994 for zatebradine, and British Journal of Pharmacology, Vol. 125, pp. 741-750, 1998 for cilobradine). […] Cilobradine in particular reduces the heart rate in the sinoatrial node of the heart by selective blockade of If channels (“funny channels”) through a direct interaction with predominantly HCN4 channels. This blockage is potent and has a dosage and voltage dependency. Because of the high selectivity to the If current, effects on vasomotor tone or myocardial contractility and lusitropy are not observed at therapeutically relevant doses in healthy cats. […]
# [4] = tested on: cats suffering from HF due to HCM; experiment: Blinded, controlled, randomised efficacy field study in HCM cats; assay type: in vivo; set-up: key to Right heart enlargement (score): Score 1: normal size; Score 2: mild enlargement; Score 3: moderate enlargement; Score 4: severe enlargement; conditions: HCM cat; for Right heart enlargement (score): X-ray
# Procedure: A blinded, controlled, randomised, efficacy field study was conducted with HCM cats receiving cilobradine (initial dose: 0.2 mg/kg po. twice daily) or a placebo (dose: 0.0 mg/kg po. twice daily) for 85 days. The dose of cilobradine could be adjusted during the study (dose range 0.1-0.5 mg/kg per-oral twice daily). The administration of furosemide was allowed in both groups. All cats were hospitalised in the first week of the study (study days 1-6), and they were allowed to go home afterwards (study days 7-85).
# Cats with a diagnosis of HCM were included in the study. The diagnosis of HCM was established by using echocardiography showing global, regional or segmental thickness of the interventricular septum and/or left ventricular free-wall in diastole greater than 6 mm. Further inclusion criteria were: systolic blood pressure less than 170 mmHg; serum thyroxine (T4) was normal; and body weight was higher than 2 kg.
# The owner provided a signed informed consent for the animal to enter the study. Cats that suffered from heart disease were scored using a 4 point score adapted from the ISACHC as follows: • Score 1: presence of heart disease associated with no clinical signs but detectable (e,g, auscultation, echocardiography and radiography); • Score 2: clinical signs of heart failure evident and adversely affect the quality of life. Typical signs include dyspnea/tachypnea, pulmonary congestion, weakness/lethargy, anorexia, exercise intolerance; • Score 3: clinical signs of advance heart failure immediately obvious. These clinical signs could have included respiratory distress, marked ascites/pulmonary congestion, profound exercise intolerance or hypoperfusion at rest; and • Score 4: severe cases: subject was moribund, suffered from cardiogenic shock or acute posterior paresis/paralysis. Hospitalization was mandatory.
# Cats having one or more of the following criteria were excluded: • a) The cat had received one or more of the following pretreatments: calcium channel blockers, e.g. diltiazem, angiotensin converting enzyme inhibitors, f3-blockers, acetylsalicylic acid, or digitales glycosides. (Cats pre-treated with furosemide alone were allowed to be included in either of the groups if they matched all inclusion criteria above.) • b) Elevated serum T4 level; • c) Elevated serum blood urea nitrogen (BUN) levels higher than 90 mg/dL or elevated serum creatinine levels higher than 3 mg/dL; • d) Systolic arterial blood pressure greater than or equal to 170 mmHg; • e) Dilated cardiomyopathy (DCM); • f) Suffered from heart disease with a score of 4 (adapted ISACHC score) or with no documented episode of heart failure (score 2 or 3) within 30 days before enrollment; • g) Fixed aortic stenosis; • h) Were pregnant or lactating queens; • i) Were nursing kittens; • j) Body weight less than 2 kg; or • k) Presence of sinus bradycardia (heart rate less than 120 bpm at consultation).
# The cat's quality of life was assessed on a daily basis using the following grading system: 1 (better), 2 (equal), 3 (worse).
# Furthermore, right heart enlargement was assessed by X-ray using the following scoring system: Score 1: normal size; Score 2: mild enlargement; Score 3: moderate enlargement; and Score 4: severe enlargement. Mild enlargement of the right side of the heart was observed using X-ray in the cat receiving a placebo at the end of the study. In contrast, the right side of the heart was normal in the cat receiving cilobradine throughout the study (see Table 10).
# heart rate [5] = experiment: Heart rate after oral administration in humans; assay type: in vivo, human; conditions: over 9 h following administration, 5, 10, 20 mg per subject
# Procedure: as §1
# [6] = tested on: healthy cats and cats with hypertrophic cardiomyopathy; conditions: cited from earlier work
# [7] = tested on: left atrial systolic and global function; conditions: feline CMP; cited from earlier work
structure (smiles),measurement,setting,value
COc1ccc(CCN2CCC[C@H](CN3CCc4cc(OC)c(OC)cc4CC3=O)C2)cc1OC.Cl [cilobradine hydrochloride],Half-life,"[1]; 0.1 mg/kg, suspension, once daily po. 4 days",3.52 h
same,Half-life,"[1]; 0.3 mg/kg, suspension, once daily po. 4 days",2.53 h
same,Half-life,"[2]; human, 5 mg/subject (0.07 mg/kg), capsules, once daily po. 7 days",13.9 h
same,Half-life,"[2]; human, 10 mg/subject (0.14 mg/kg), capsules, once daily po. 7 days",13.0 h
same,Half-life,"[2]; human, 20 mg/subject (0.28 mg/kg), capsules, once daily po. 7 days",10.1 h
same,bradycardia,"heart rate [3]; conscious cat, oral 0.1 and 0.3 mg/kg per day, sid and bid",dose-dependent bradycardia
same,lipophilicity profile,Lipophilicity profile,slightly more lipophilic at neutral pH values
"COc1ccc(CCN(C)CCCN2CCc3cc(OC)c(OC)cc3CC2=O)cc1OC [zatebradine, reference compound]",block of Ih,Ih channel,can also be blocked
"COc1ccc(CCN2CCC[C@H](CN3CCc4cc(OC)c(OC)cc4CC3=O)C2)cc1OC [Cilobradine, (+)-3-[(N-(2-(3,4-dimethoxy-phenyl)ethyl)-piperidin-3-(S)-yl)-methyl]-(7,8-dimethoxy-1,3,4,5-tetrahydro-2H-3-benzazepin-2-on)]",Half-life,"[1]; in vivo, healthy cats, once daily po. for 4 days, 0.1 and 0.3 mg/kg, read-out: half-life",2.53 to 3.52 h
same,block of Ih,Ih channel,can also be blocked
same,effects on vasomotor tone or myocardial contractility and lusitropy,healthy cats,not observed
same,Half-life,"[2]; in vivo, healthy human male subjects, once daily po. for 7 days, 5-20 mg per subject, read-out: half-life",10.1 to 13.9 h
same,heart rate reduction,"heart rate [3]; cats, over 9 h following administration, 0.1 and 0.3 mg/kg",dose dependent heart rate reduction
same,reduction of the interventricular septal thickness in systole compared to placebo,[4],considerably greater
same,Interventricular septal thickness in systole,[4]; SD 0 (baseline),11.7 mm
same,Heart rate,"[4]; SD 0 (baseline), initial dose 0.2 mg/kg po. twice daily",152 beats per minutes
same,Heart rate,[4]; SD 7,120 beats per minutes
same,Heart rate,[4]; SD 28,144 beats per minutes
same,Heart rate,[4]; SD 56,124 beats per minutes
same,Heart rate,[4]; SD 84,210 beats per minutes
same,Interventricular septal thickness in systole,[4]; SD 84,7.5 mm
same,Right heart enlargement (score),[4]; SD 0 (baseline),1
same,Right heart enlargement (score),[4]; SD 84,1
same,quality of life,"[4]; daily owner grading 1 (better), 2 (equal), 3 (worse), FIG. 1",almost continuous improvement
same,heart rate (in words),"[4]; study period, versus placebo cat",reduced throughout the study
same,right side of the heart (X-ray),[4]; throughout the study,normal
same,heart rate reduction,heart rate [5],dose dependent heart rate reduction
"COc1cc2c(cc1OC)CC(=O)N(CCCN(C)C[C@H]1Cc3cc(OC)c(OC)cc31)CC2 [ivabradine, 3-[3-[[[(7S)-3,4-dimethoxybicyclo[4.2.0]octa-1,3,5-trien-7-yl]methyl]methylamino]propyl]-1,3,4,5-tetrahydro-7,8-dimethoxy-2H-3-benzazepin-2-one]",heart rate reduction,[6]; healthy cats,significant heart rate reduction
same,"negative chronotropic effect, dose relation",[6]; healthy cats,dose-dependency
same,heart rate reduction,[6]; subclinical HCM cats,significant heart rate reduction
CC(C)NCC(O)COc1ccc(CC(N)=O)cc1 (stereo not shown) [atenolol],left atrial systolic and global function,[7],significantly decreased
